According to patent publication US20250214960A1, “COMPOUNDS HAVING ACTIVITY OF DEGRADING GSPT1 AND APPLICATION THEREOF” (SHANGHAI MEIZER PHARMACEUTICALS CO., LTD., priority 2021, published 2025):
Read-outs that look alike come from different tables or passages of the source.

Key:
Assay type in all cases: cell-based
GSPT1 protein = target: T1, GSPT1 protein (Homo sapiens, UniProt P15170+Q96SW2); test: Western blot detection of degradation activity of GSPT1 protein in Jeko-1 cells; conditions: JeKo-1, 24 h, read-out: GSPT1 degradation rate (%)
T1 construct: endogenous in cells; host or cells: Jeko-1
T1 sequence (P15170 whole entry): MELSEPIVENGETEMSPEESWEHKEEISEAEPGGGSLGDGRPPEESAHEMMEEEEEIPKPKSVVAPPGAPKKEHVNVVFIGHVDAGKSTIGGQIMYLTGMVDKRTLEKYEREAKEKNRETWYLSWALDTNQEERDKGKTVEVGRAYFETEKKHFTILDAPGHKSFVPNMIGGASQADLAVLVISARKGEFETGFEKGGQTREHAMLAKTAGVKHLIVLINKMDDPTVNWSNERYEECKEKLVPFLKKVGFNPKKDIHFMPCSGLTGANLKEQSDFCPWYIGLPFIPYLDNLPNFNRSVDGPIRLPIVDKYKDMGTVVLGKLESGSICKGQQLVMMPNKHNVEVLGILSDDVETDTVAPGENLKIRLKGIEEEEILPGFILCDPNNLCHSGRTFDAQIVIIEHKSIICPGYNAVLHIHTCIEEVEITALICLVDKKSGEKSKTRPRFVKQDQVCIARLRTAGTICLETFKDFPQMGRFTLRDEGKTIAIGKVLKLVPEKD
T1 sequence (Q96SW2 whole entry): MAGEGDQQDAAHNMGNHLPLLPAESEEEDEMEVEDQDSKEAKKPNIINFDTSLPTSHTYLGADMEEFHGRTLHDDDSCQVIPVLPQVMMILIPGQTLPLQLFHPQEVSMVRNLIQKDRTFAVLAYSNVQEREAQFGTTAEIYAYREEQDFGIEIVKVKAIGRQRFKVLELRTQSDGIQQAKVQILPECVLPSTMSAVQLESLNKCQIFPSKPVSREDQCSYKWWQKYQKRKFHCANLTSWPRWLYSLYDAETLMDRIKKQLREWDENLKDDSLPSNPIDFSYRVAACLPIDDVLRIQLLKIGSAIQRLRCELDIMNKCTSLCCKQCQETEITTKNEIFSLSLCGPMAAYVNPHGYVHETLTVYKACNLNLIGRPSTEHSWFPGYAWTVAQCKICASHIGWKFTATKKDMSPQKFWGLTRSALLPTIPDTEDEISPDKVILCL
T1 sequence (Q16531 whole entry partner): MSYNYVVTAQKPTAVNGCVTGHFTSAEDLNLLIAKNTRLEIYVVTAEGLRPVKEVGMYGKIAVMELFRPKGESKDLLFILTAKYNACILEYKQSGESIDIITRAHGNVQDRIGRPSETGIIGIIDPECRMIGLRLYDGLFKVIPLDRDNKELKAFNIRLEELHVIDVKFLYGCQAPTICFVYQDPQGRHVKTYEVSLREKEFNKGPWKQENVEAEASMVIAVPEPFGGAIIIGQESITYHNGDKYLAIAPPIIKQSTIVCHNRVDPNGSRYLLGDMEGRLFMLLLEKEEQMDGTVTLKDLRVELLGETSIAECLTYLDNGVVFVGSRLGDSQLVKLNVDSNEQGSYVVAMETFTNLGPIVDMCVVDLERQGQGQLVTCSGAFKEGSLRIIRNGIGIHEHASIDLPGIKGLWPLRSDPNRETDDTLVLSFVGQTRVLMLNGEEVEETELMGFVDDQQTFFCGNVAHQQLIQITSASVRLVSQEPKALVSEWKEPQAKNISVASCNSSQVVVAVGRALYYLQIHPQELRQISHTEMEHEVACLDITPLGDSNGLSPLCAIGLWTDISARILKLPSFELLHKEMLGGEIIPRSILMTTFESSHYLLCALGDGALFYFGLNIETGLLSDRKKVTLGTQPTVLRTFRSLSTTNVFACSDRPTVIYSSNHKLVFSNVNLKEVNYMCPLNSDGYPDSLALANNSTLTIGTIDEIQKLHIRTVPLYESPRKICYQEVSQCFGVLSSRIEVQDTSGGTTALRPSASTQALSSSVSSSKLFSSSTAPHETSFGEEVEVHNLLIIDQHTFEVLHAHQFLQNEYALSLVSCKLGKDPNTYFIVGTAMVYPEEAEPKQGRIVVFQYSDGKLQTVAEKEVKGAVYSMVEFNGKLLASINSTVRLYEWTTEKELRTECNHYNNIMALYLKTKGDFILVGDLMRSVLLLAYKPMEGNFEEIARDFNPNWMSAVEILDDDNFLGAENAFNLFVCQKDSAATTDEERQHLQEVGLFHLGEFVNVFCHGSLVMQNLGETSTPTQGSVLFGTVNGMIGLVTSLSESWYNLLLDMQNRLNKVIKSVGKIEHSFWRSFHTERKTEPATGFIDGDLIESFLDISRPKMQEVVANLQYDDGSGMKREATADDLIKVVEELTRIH
Protocol: Test Example 1: Western Blot Detection of Degradation Activity of GSPT1 Protein by the Compounds
Cell line: Jeko-1 cell line was cultured with an RPMI1640 media containing 20% fetal bovine serum in an incubator at 37° C., 5% CO2, and saturated humidity.
DMSO control group and test compound (concentration shown in the table below) were set up, after processing for 24 hours, the cells were collected, pre-cooled cell lysate was added and left on ice for 10 minutes. The total protein of the cells was extracted, and the protein concentration was measured and quantified using the BCA method. Routine gel preparation, sample loading, electrophoresis were conducted, then the membrane was transferred, and sealed, wherein the primary antibody was diluted with a blocking solution at 1:500-5000. The membrane was immersed in the diluted primary antibody and incubated overnight at 4° C. After rinsing, the secondary antibody was diluted with a sealing solution at 1:10000-20000, the membrane was immersed in the diluted secondary antibody, and incubated at room temperature for 45 minutes. After rinsing, the results were tested on ODYSSEY (Li-COR). GAPDH was used as an internal reference control.
Image J software was used to perform gray level analysis on each band and the degradation rate of GSPT1 protein by the compounds was calculated.

Jeko-1 cells = test: CCK8 method, inhibition of Jeko-1 cell proliferation; conditions: Homo sapiens; Jeko-1, 72 hours; read-out: Cellular proliferation inhibition IC50
Protocol: Test Example 3: CCK8 Method for Detecting Inhibition of Jeko-1 Cell Proliferation by Compound of Formula
Cell culture: The Jeko-1 cell line (human lymphoma cells) was cultured in RPMI-1640 complete medium containing […] and 1% penicillin streptomycin, and incubated in an incubator at 37° C., 5% CO2, and saturated humidity.
Cell laying: Jeko-1 cells in logarithmic growth phase was taken, centrifuged, and an appropriate amount of complete culture medium was added to obtain a single-cell suspension, a hemocytometer was used for cell counting, and a cell suspension of 1.5×10^5 cells/mL was prepared, the cells were inoculated into a 96 well culture plate at a rate of 100 μL cell suspension per well and incubated in a CO2 cell incubator for 24 hours.
CCK-8 detection: 72 hours after administration, 10% CCK-8 solution was added to each well, placed in a CO2 cell culture incubator, and incubated for 1-4 hours. The absorbance of each well was measured using a microplate reader at 450 nm.
Calculation of cellular proliferation inhibition rate:
Cellular proliferation inhibition rate (%)=[(Ac−As)/(Ac−Ab)]×100% • As: absorbance in experimental wells (including cells, culture medium, CCK-8 solution, and drug solution) • Ac: absorbance in control wells (including cells, culture medium, CCK-8 solution, without drugs) • Ab: absorbance in blank wells (including culture medium, CCK-8 solution, without cells or drugs)

HL-60 cells = test: CTG method, inhibition of HL-60 cell proliferation; conditions: Homo sapiens; HL-60, 72 hours; read-out: Cellular proliferation inhibition IC50
Protocol: (§1) Test Example 2: CTG Method for Detecting the Inhibitory Effect of Compounds of Formula on the Proliferation of HNT 34 or HL-60 Cells
(§2) HNT-34 or HL-60 cells were taken and cultured in RPMI1640 medium containing 20% fetal bovine serum. The cells were inoculated on a 96 well plate, with 1×10^4 cells per well, and incubated at 37° C. in a […] incubator. After adding the test compound, it was incubated for 72 hours. Then an appropriate amount of CTG reagent was added, the luminescence value was measured, and the inhibition rate was calculated.

HNT-34 cells = test: CTG method, inhibition of HNT-34 cell proliferation; conditions: HNT-34, 72 hours; read-out: Cellular proliferation inhibition IC50
Protocol: as §1, §2

Work on `CC(C)(C)OC(=O)N[C@H](C(=O)NCc1ccc2c(c1)CN(C1CCC(=O)NC1=O)C2=O)c1ccccc1` (stereo partly drawn) [Compound 4-87, Tert butyl ((1S)-2-((2-(2,6-dioxopiperidin-3-yl)-1-oxoisoindolin-5-yl)methyl)amino)-2-oxo-1-phenylethyl) carbamate] yielded an inhibition at 0.1 µM (GSPT1 protein; 100 nM, Jeko-1 cells, 24 hours) of 89%, an inhibition at 10 µM (GSPT1 protein; 10 μM, Jeko-1 cells, 24 hours) of 93% and an IC50 (Jeko-1 cells) of 0.2 nM.

For `CC(C)(C)OC(=O)N[C@H](C(=O)NCc1ccc2c(c1)CN(C1CCC(=O)NC1=O)C2=O)c1ccc(Cl)cc1` (stereo partly drawn) [Compound 4-150, Tert butyl ((1S)-1-(4-chlorophenyl)-2-((2-(2,6-dioxopyridin-3-yl)-1-oxoisoidoline-5-yl)methyl)amino)-2-oxoethyl) carbamate], the IC50 (HL-60 cells) was 9.2 nM, the IC50 (HNT-34 cells) was 6.5 nM and the inhibition at 0.1 µM (GSPT1 protein; 100 nM, Jeko-1 cells, 24 hours) was 90%. For the same compound, the inhibition at 10 µM (GSPT1 protein; 10 μM, Jeko-1 cells, 24 hours) was 99% and the IC50 (Jeko-1 cells) was 3.9 nM.

Compound `CC(C)(C)OC(=O)NC(C(=O)NCc1ccc2c(c1)CN(C1CCC(=O)NC1=O)C2=O)c1ccc(Cl)c(Cl)c1` (stereo not drawn) [Compound 4-151, Tert butyl (1-(3,4-dichlorophenyl)-2-((2-(2,6-dioxopyridin-3-yl)-1-oxoisoindoline-5-yl)methyl)amino)-2-oxoethyl) carbamate] has an IC50 (HL-60 cells) of 11.6 nM, an IC50 (HNT-34 cells) of 7.8 nM and an inhibition at 0.1 µM (GSPT1 protein; 100 nM, Jeko-1 cells, 24 hours) of 77%. It also gave an inhibition at 10 µM (GSPT1 protein; 10 μM, Jeko-1 cells, 24 hours) of 95% and an IC50 (Jeko-1 cells) of 1.3 nM.

For `CC(C)(C)OC(=O)N[C@H](C(=O)NCc1ccc2c(c1)CN(C1CCC(=O)NC1=O)C2=O)c1ccc(F)c(Cl)c1` (stereo partly drawn) [Compound 4-152, Tert butyl (1-(3-chloro-4-fluorophenyl)-2-((2-(2,6-dioxopyridin-3-yl)-1-oxoisoindoline-5-yl)methyl)amino)-2-oxoethyl) carbamate], the IC50 (HL-60 cells) was 7.9 nM, the IC50 (HNT-34 cells) was 6.6 nM and the inhibition at 0.1 µM (GSPT1 protein; 100 nM, Jeko-1 cells, 24 hours) was 93%. For the same compound, the inhibition at 10 µM (GSPT1 protein; 10 μM, Jeko-1 cells, 24 hours) was 82% and the IC50 (Jeko-1 cells) was 0.7 nM.

For `O=C1CCC(N2Cc3cc(CNC(=O)[C@@H](NC(=O)OC4CCCC4)c4ccccc4)ccc3C2=O)C(=O)N1` (stereo partly drawn) [Compound 4-159, Cyclopentyl (1S)-2-((2-(2,6-dioxypiperidin-3-yl)-1-oxoisoindoline-5-yl)methyl)amino)-2-oxo-1-phenylethyl) carbamate], the inhibition at 0.1 µM (GSPT1 protein) was 93%, the inhibition at 10 µM (GSPT1 protein) was 99% and the IC50 (Jeko-1 cells) was 0.02 nM.

`CC(C)C1CC[C@H](C)C[C@@H]1OC(=O)N[C@H](C(=O)NCc1ccc2c(c1)CN(C1CCC(=O)NC1=O)C2=O)c1ccccc1` (stereo partly drawn) [Compound 4-175] was tested, and the inhibition at 0.1 µM (GSPT1 protein) was 93%, the inhibition at 10 µM (GSPT1 protein) was 90% and the IC50 (Jeko-1 cells) was 0.03 nM.

Compound `CC(C)(C)OC(=O)NC(C(=O)NCc1ccc2c(c1)CN(C1CCC(=O)NC1=O)C2=O)c1ccccc1F` (stereo not drawn) [Compound 5-5, Tert butyl (2-((2-(2,6-dioxypiperidin-3-yl)-1-oxoisoidoline-5-yl)methyl)amino)-1-(2-fluorophenyl)-2-oxoethyl) carbamate] has an inhibition at 0.1 µM (GSPT1 protein; 100 nM, Jeko-1 cells, 24 hours) of 100%, an inhibition at 10 µM (GSPT1 protein; 10 μM, Jeko-1 cells, 24 hours) of 100% and an IC50 (Jeko-1 cells) of 0.2 nM.

`CC(C)CC(CNC(=O)OC(C)(C)C)C(=O)NCc1ccc2c(c1)CN(C1CCC(=O)NC1=O)C2=O` (stereo not drawn) [Compound 5-33] showed an IC50 (HL-60 cells) of 35.4 nM, an IC50 (HNT-34 cells) of 32.7 nM and an inhibition at 0.1 µM (GSPT1 protein; 100 nM, Jeko-1 cells, 24 hours) of 52%. For the same compound, the inhibition at 10 µM (GSPT1 protein; 10 μM, Jeko-1 cells, 24 hours) was 80%.

Work on `CN(C(=O)OC1CCCC1)[C@H](C(=O)NCc1ccc2c(c1)CN(C1CCC(=O)NC1=O)C2=O)c1ccccc1` (stereo partly drawn) [Compound 5-36, Cyclopentyl ((1S)-2-((2-(2,6-dioxypiperidin-3-yl)-1-oxoisoindoline-5-yl)methyl)amino)-2-oxo-1-phenylethyl) (methyl) carbamate] yielded an inhibition at 0.1 µM (GSPT1 protein) of 97%, an inhibition at 10 µM (GSPT1 protein) of 97% and an IC50 (Jeko-1 cells) of 1 nM.

Compound `CC(C)(C)OC(=O)N[C@@H](Cc1ccccc1)C(=O)NCc1ccc2c(c1)CN(C1CCC(=O)NC1=O)C2=O` (stereo partly drawn) [Compound 5-37, Tert butyl ((2S)-1-(2-(2,6-dioxypiperidin-3-yl)-1-oxoisoindoline-5-yl)methyl) amino)-1-oxo-3-phenylprop-2-yl) carbamate] has an inhibition at 0.1 µM (GSPT1 protein; 100 nM, Jeko-1 cells, 24 hours) of 97.8%, an inhibition at 10 µM (GSPT1 protein; 10 μM, Jeko-1 cells, 24 hours) of 99.5% and an IC50 (Jeko-1 cells) of 0.6 nM.

With `CC(C)(C)OC(=O)NCC(C(=O)NCc1ccc2c(c1)CN(C1CCC(=O)NC1=O)C2=O)c1ccc(Cl)cc1` (stereo not drawn) [Compound 5-41, Tert butyl (2-(4-chlorophenyl)-3-((2-(2,6-dioxypiperidin-3-yl)-1-oxoisoindoline-5-yl)methyl)amino)-3-oxopropyl) carbamate] the inhibition at 0.1 µM (GSPT1 protein; 100 nM, Jeko-1 cells, 24 hours) was 96.9%, the inhibition at 10 µM (GSPT1 protein; 10 μM, Jeko-1 cells, 24 hours) was 96.7% and the IC50 (Jeko-1 cells) was 0.04 nM.

With `CC(C)(C)OC(=O)N[C@@H](CC1CCCCC1)C(=O)NCc1ccc2c(c1)CN(C1CCC(=O)NC1=O)C2=O` (stereo partly drawn) [Compound 5-46, Tert butyl ((2S)-3-cyclohexyl-1-(2-((2,6-dioxopyridin-3-yl)-1-oxoisoidoline-5-yl)methyl)amino)-1-oxopropan-2-yl) carbamate] the IC50 (HL-60 cells) was 8.3 nM, the IC50 (HNT-34 cells) was 3.7 nM and the inhibition at 0.1 µM (GSPT1 protein; 100 nM, Jeko-1 cells, 24 hours) was 90.6%. It also gave an inhibition at 10 µM (GSPT1 protein; 10 μM, Jeko-1 cells, 24 hours) of 93.6% and an IC50 (Jeko-1 cells) of 0.2 nM.

For `CN(C(=O)CC1CCCC1)[C@H](C(=O)NCc1ccc2c(c1)CN(C1CCC(=O)NC1=O)C2=O)c1ccccc1` (stereo partly drawn) [Compound 5-50], the IC50 (HL-60 cells) was 6.9 nM, the IC50 (HNT-34 cells) was 5.8 nM and the inhibition at 0.1 µM (GSPT1 protein; 100 nM, Jeko-1 cells, 24 hours) was 94.9%. It also gave an inhibition at 10 µM (GSPT1 protein; 10 μM, Jeko-1 cells, 24 hours) of 96.9%.

`CC(C)(C)OC(=O)N[C@H](C(=O)NCc1ccc2c(c1)CN(C1CCC(=O)NC1=O)C2=O)C1CCCCC1` (stereo partly drawn) [Compound 5-56, Tert butyl ((1S)-1-cyclohexyl-2-((2-(2,6-dioxopyridin-3-yl)-1-oxoisoidoline-5-yl)methyl)amino)-2-oxoethyl) carbamate] showed an IC50 (HL-60 cells) of 25.8 nM, an IC50 (HNT-34 cells) of 18 nM and an inhibition at 0.1 µM (GSPT1 protein; 100 nM, Jeko-1 cells, 24 hours) of 18.8%. The inhibition at 10 µM (GSPT1 protein; 10 μM, Jeko-1 cells, 24 hours) was 84.1%.

Work on `CC(C)(C)OC(=O)N[C@H](C(=O)NCc1ccc2c(c1)CN(C1CCC(=O)NC1=O)C2=O)C1CCCC1` (stereo partly drawn) [Compound 5-57, Tert butyl ((1S)-1-cyclopentyl-2-((2-(2,6-dioxopyridin-3-yl)-1-oxoisoidoline-5-yl)methyl)amino)-2-oxoethyl) carbamate] yielded an IC50 (HL-60 cells) of 15 nM, an IC50 (HNT-34 cells) of 7.5 nM and an inhibition at 0.1 µM (GSPT1 protein; 100 nM, Jeko-1 cells, 24 hours) of 75%. For the same compound, the inhibition at 10 µM (GSPT1 protein; 10 μM, Jeko-1 cells, 24 hours) was 98.1%.

Work on `O=C1CCC(N2Cc3cc(CNC(=O)[C@H](CC4CCCCC4)NC(=O)CC4CCCC4)ccc3C2=O)C(=O)N1` (stereo partly drawn) [Compound 5-92, (2S)-3-cyclohexyl-2-(2-cyclopentylacetamido)-N-((2-(2,6-dioxypiperidin-3-yl)-1-oxoisoindoline-5-yl)methyl) propionamide] yielded an IC50 (HL-60 cells) of 25.2 nM, an IC50 (HNT-34 cells) of 25.2 nM and an inhibition at 0.1 µM (GSPT1 protein; 100 nM, Jeko-1 cells, 24 hours) of 79%. The inhibition at 10 µM (GSPT1 protein; 10 μM, Jeko-1 cells, 24 hours) was 97%.

In the case of `CC(C)OC(=O)N[C@@H](CC1CCCCC1)C(=O)NCc1ccc2c(c1)CN(C1CCC(=O)NC1=O)C2=O` (stereo partly drawn) [Compound 5-94, Isopropyl ((2S)-3-cyclohexyl-1-((2-(2,6-dioxypiperidin-3-yl)-1-oxoisoindolin-5-yl)methyl)amino)-1-oxopropan-2-yl) carbamate], the IC50 (HL-60 cells) is reported as 12.8 nM, the IC50 (HNT-34 cells) is reported as 7.4 nM and the inhibition at 0.1 µM (GSPT1 protein) is reported as 85%. The inhibition at 10 µM (GSPT1 protein) was 95%.

`CC[C@H](C)[C@@H](CC(=O)NCc1ccc2c(c1)CN(C1CCC(=O)NC1=O)C2=O)NC(=O)OC(C)(C)C` (stereo partly drawn) [Compound 5-97, Tert butyl ((3R,4S)-1-((2-(2,6-dioxypiperidin-3-yl)-1-oxoisoidoline-5-yl)methyl)amino)-4-methyl-1-oxohexane-3-yl) carbamate] gave an IC50 (HL-60 cells) of 11 nM, an IC50 (HNT-34 cells) of 6.9 nM and an inhibition at 0.1 µM (GSPT1 protein; 100 nM, Jeko-1 cells, 24 hours) of 97%. It also gave an inhibition at 10 µM (GSPT1 protein; 10 μM, Jeko-1 cells, 24 hours) of 98%.
